Assay results taken from patent publication US20020025925A1, “Combination therapy” (priority 1996, published 2002).

What was measured:
[1] = test system: rat adjuvant-induced arthritis; assay: Rat adjuvant-induced arthritis model; assay type: in vivo
Description: Mean of 10 readings was recorded.
Drugs were formulated fresh for each administration.

[2] = Ex vivo bioassay of blood concentration after oral administration; set-up: species or system rat; settings: 10 mg/kg oral, suspension in PBS/Tween, +/- CyA 0.3 mg/kg, 0.5-24 hrs, n=6
Description: Compound 1 (10 mg/kg)±CyA (0.3 mg/kg) (in PBS/0.1% Tween 80™] was administered to healthy male Lewis rats (as above). Blood samples (0.5 ml into a syringe containing 0.1 ml acid citrate dextroset as anticoagulant) were removed from the ventrcolateral tail vein of the halothane anaestetised rat at t=prebleed, 0.5, 1, 2, 6 and 24 hrs. 3 mls methanol was added to each blood sample, mixed and centrifuged at 3000 r.p.m. for 15 minutes (using Beckman GPKR centrifuge). 2.0 ml of the methanol supernatant was removed and evaporated dry. The pellet was redisolved in 200 μl DMSO (dimethylsulphoxide). An aliquot of the solubilised pellet was assayed against fibroblast collagenase using ^14C collagen as substrate, as follows:
Samples were incubated overnight at 37° C. and undigested substrate removed by centrifugation at 11,600 r.p.m. for 15 mins (using Heraeus Biofuge 15). 200 μl of supernatant was tested by liquid scintillation spectrophotometry.
A calibration curve for the test compound of interest was run alongside the blood samples. The concentration of the test compound in the blood was then calculated from the calibration curve.

Structure (SMILES)	effect on arthritis ([1]; Compound 1 10 mg/ml (so in the source), po, bid, days 10-20)	reducing the paw volume (swelling) ([1]; Compound 1 at doses at or below 10 mg/kg, po, bid (data not shown))	blood concentration of Compound 1 with versus without CyA [2]	synergy with cyclosporin A ([1]; Compound 2 5 mg/kg ip, bid with cyclosporin A 0.3 mg/kg ip, bid)
CCC[C@H](C(=O)NO)[C@@H](CC(C)C)C(=O)N[C@H](C(=O)NC)C(C)(C)C [Compound 1, 3R-(2,2-Dimethyl-1S-methylcarbamoyl-propylcarbamoyl)-5-methyl-2S-2-propyl-hexanohydroxamic acid]	very little or no effect	ineffective	equivalent	–
CNC(=O)[C@H](Cc1ccccc1)NC(=O)[C@H](CC(C)C)[C@H](CSc1cccs1)C(=O)NO [Compound 2, [4-(N-Hydroxyamino)-2R-isobutyl-3S-(thiophenylthiomethyl)succinyl]-L-phenylalanine-N-methylamide]	–	–	–	act in synergy
